# Reference: paper PMC9944328 (Nature Communications, 2023)
# Like-named read-outs stand apart in the source and are kept apart here.
# What was measured:
# Assay in all cases: Bystander BRET endosomal trafficking (β-arrestin 1-Nluc, FYVE-mVenus), HEK293 (SSTR2 mutants);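 note: Read-out is the BRET ratio between Nluc-fused β-arrestin 1 and the early endosome marker FYVE-mVenus, measured after ligand addition with coelenterazine h as substrate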;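 for Span: percent of maximal wild-type response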;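 for Top: percent of maximal wild-type response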
# SSTR2 mutants [1] = test system: SSTR2 mutants
# SSTR2 mutants [2] = molecular target: SSTR2 mutants (Homo sapiens, UniProt P30874, R140A)
# Chain of SSTR2 mutants (Homo sapiens, UniProt P30874, R140A) (P30874 whole entry R140A): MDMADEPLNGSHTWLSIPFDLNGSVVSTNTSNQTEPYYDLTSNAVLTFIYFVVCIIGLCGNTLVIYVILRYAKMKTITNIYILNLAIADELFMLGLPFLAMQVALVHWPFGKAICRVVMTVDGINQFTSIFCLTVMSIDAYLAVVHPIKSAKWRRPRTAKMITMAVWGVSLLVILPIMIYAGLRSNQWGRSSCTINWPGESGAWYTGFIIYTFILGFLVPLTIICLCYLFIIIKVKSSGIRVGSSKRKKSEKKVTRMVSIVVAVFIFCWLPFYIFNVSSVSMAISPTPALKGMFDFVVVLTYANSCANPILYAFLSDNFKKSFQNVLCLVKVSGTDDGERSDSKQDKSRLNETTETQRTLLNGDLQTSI
# SSTR2 mutants [3] = molecular target: SSTR2 mutants (Homo sapiens, UniProt P30874, P220A)
# Chain of SSTR2 mutants (Homo sapiens, UniProt P30874, P220A) (P30874 whole entry P220A): as the sequence (P30874 whole entry R140A) above, with A140R, P220A counted along it
# SSTR2 mutants [4] = molecular target: SSTR2 mutants (Homo sapiens, UniProt P30874, I130A)
# Chain of SSTR2 mutants (Homo sapiens, UniProt P30874, I130A) (P30874 whole entry I130A): as the sequence (P30874 whole entry R140A) above, with I130A, A140R counted along it
# SSTR2 mutants [5] = molecular target: SSTR2 mutants (Homo sapiens, UniProt P30874, I284A); settings: for Bottom: best-fit value
# Chain of SSTR2 mutants (Homo sapiens, UniProt P30874, I284A) (P30874 whole entry I284A): as the sequence (P30874 whole entry R140A) above, with A140R, I284A counted along it
# SSTR2 mutants [6] = molecular target: SSTR2 mutants (Homo sapiens, UniProt P30874, F265A)
# Chain of SSTR2 mutants (Homo sapiens, UniProt P30874, F265A) (P30874 whole entry F265A): as the sequence (P30874 whole entry R140A) above, with A140R, F265A counted along it
# [7] = best-fit value, F294A-1 (run 1)
# [8] = best-fit value, F294A-2 (run 2)
# [9] = best-fit value, F294A-3 (run 3)
# [10] = best-fit value, I284A-1 (run 1)
# [11] = best-fit value, I284A-2 (run 2)
# [12] = best-fit value, I284A-3 (run 3)
# [13] = best-fit value, K291A-1 (run 1)
# [14] = best-fit value, K291A-2 (run 2)
# [15] = best-fit value, K291A-3 (run 3)
# [16] = best-fit value, N276A-1 (run 1)
# [17] = best-fit value, N276A-2 (run 2)
# [18] = best-fit value, N276A-3 (run 3)
smiles,measurement,setting,value
N#Cc1cccc(-c2ccc3ncc(-c4cc(F)cc(F)c4)c(N4CCC(N)CC4)c3c2)c1O [paltusotine],Span,SSTR2 mutants [1]; [7],94.38
same,Top,SSTR2 mutants [1]; [7],95.1
same,EC50,SSTR2 mutants [1]; [8],1.28 µM
same,LogEC50,SSTR2 mutants [1]; [8],-5.892
same,Span,SSTR2 mutants [1]; [8],84.17
same,Top,SSTR2 mutants [1]; [8],81.83
same,EC50,SSTR2 mutants [1]; [9],1.57 µM
same,LogEC50,SSTR2 mutants [1]; [9],-5.803
same,Span,SSTR2 mutants [1]; [9],87.18
same,Top,SSTR2 mutants [1]; [9],86.4
same,EC50,SSTR2 mutants [1]; [10],0.0712 µM
same,LogEC50,SSTR2 mutants [1]; [10],-7.148
same,Span,SSTR2 mutants [1]; [10],95.18
same,Top,SSTR2 mutants [1]; [10],94.55
same,EC50,SSTR2 mutants [1]; [11],0.0841 µM
same,LogEC50,SSTR2 mutants [1]; [11],-7.075
same,Span,SSTR2 mutants [1]; [11],103.8
same,Top,SSTR2 mutants [1]; [11],105.1
same,EC50,SSTR2 mutants [1]; [12],0.0826 µM
same,LogEC50,SSTR2 mutants [1]; [12],-7.083
same,Span,SSTR2 mutants [1]; [12],102.7
same,Top,SSTR2 mutants [1]; [12],102.8
same,EC50,SSTR2 mutants [1]; [13],0.0357 µM
same,LogEC50,SSTR2 mutants [1]; [13],-7.448
same,Span,SSTR2 mutants [1]; [13],68.73
same,Top,SSTR2 mutants [1]; [13],69.72
same,EC50,SSTR2 mutants [1]; [14],0.0839 µM
same,LogEC50,SSTR2 mutants [1]; [14],-7.076
same,Span,SSTR2 mutants [1]; [14],87.08
same,Top,SSTR2 mutants [1]; [14],83.73
same,EC50,SSTR2 mutants [1]; [15],0.0302 µM
same,LogEC50,SSTR2 mutants [1]; [15],-7.52
same,Span,SSTR2 mutants [1]; [15],76.1
same,Top,SSTR2 mutants [1]; [15],71.42
same,EC50,SSTR2 mutants [1]; [16],0.14 µM
same,LogEC50,SSTR2 mutants [1]; [16],-6.855
same,Span,SSTR2 mutants [1]; [16],79.71
same,Top,SSTR2 mutants [1]; [16],79.77
same,EC50,SSTR2 mutants [1]; [17],0.11 µM
same,LogEC50,SSTR2 mutants [1]; [17],-6.96
same,Span,SSTR2 mutants [1]; [17],78.62
same,Top,SSTR2 mutants [1]; [17],78.47
same,EC50,SSTR2 mutants [1]; [18],0.1 µM
same,LogEC50,SSTR2 mutants [1]; [18],-7
same,Span,SSTR2 mutants [1]; [18],73.41
same,Top,SSTR2 mutants [1]; [18],70.97
same,EC50,"SSTR2 mutants [1]; read-out: EC50 (best-fit), I130A-1 (run 1)",~7970 µM
same,EC50,"SSTR2 mutants [1]; read-out: EC50 (best-fit), I130A-2 (run 2)",0.000139 µM
same,EC50,"SSTR2 mutants [1]; read-out: EC50 (best-fit), I130A-3 (run 3)",0.00034 µM
same,EC50,"SSTR2 mutants [1]; read-out: EC50 (best-fit), P220A-1 (run 1)",0.184 µM
same,EC50,"SSTR2 mutants [1]; read-out: EC50 (best-fit), P220A-2 (run 2)",~7280 µM
same,EC50,"SSTR2 mutants [1]; read-out: EC50 (best-fit), P220A-3 (run 3)",0.831 µM
same,EC50,"SSTR2 mutants [1]; read-out: EC50 (best-fit), R140A-1 (run 1)",0.00467 µM
same,EC50,"SSTR2 mutants [1]; read-out: EC50 (best-fit), R140A-2 (run 2)",0.00664 µM
same,EC50,"SSTR2 mutants [1]; read-out: EC50 (best-fit), R140A-3 (run 3)",0.00659 µM
same,EC50,"SSTR2 mutants [1]; read-out: EC50 (best-fit), W269A-1 (run 1)",0.13 µM
same,EC50,"SSTR2 mutants [1]; read-out: EC50 (best-fit), W269A-2 (run 2)",0.476 µM
same,EC50,"SSTR2 mutants [1]; read-out: EC50 (best-fit), W269A-3 (run 3)",0.155 µM
same,EC50,"SSTR2 mutants [1]; read-out: EC50 (best-fit), Y312A-1 (run 1)",0.00818 µM
same,EC50,"SSTR2 mutants [1]; read-out: EC50 (best-fit), Y312A-2 (run 2)",0.0115 µM
same,EC50,"SSTR2 mutants [1]; read-out: EC50 (best-fit), Y312A-3 (run 3)",0.00641 µM
same,Bottom (best-fit),SSTR2 mutants [2]; R140A-1 (run 1),-0.6263
same,Bottom (best-fit),SSTR2 mutants [2]; R140A-2 (run 2),-11.29
same,Bottom (best-fit),SSTR2 mutants [2]; R140A-3 (run 3),0.1772
same,Bottom (best-fit),SSTR2 mutants [3]; P220A-1 (run 1),0.5179
same,Bottom (best-fit),SSTR2 mutants [3]; P220A-2 (run 2),2.929
same,Bottom (best-fit),SSTR2 mutants [3]; P220A-3 (run 3),-2.504
same,Bottom (best-fit),SSTR2 mutants [4]; I130A-1 (run 1),-1.998
same,Bottom (best-fit),SSTR2 mutants [4]; I130A-2 (run 2),0.9306
same,Bottom (best-fit),SSTR2 mutants [4]; I130A-3 (run 3),-2.793
same,EC50,SSTR2 mutants [5],0.0898 ± 0.00128 µM
same,Emax,SSTR2 mutants [5]; HEK293,106 ± 6.25%
same,Bottom,SSTR2 mutants [5]; I284A-1 (run 1),-0.6254
same,Bottom,SSTR2 mutants [5]; I284A-2 (run 2),1.24
same,Bottom,SSTR2 mutants [5]; I284A-3 (run 3),0.1294
same,Bottom (best-fit),SSTR2 mutants [6]; F265A-1 (run 1),-0.01693
same,Bottom (best-fit),SSTR2 mutants [6]; F265A-2 (run 2),-7.978
same,Bottom (best-fit),SSTR2 mutants [6]; F265A-3 (run 3),-0.1955
